The text below walks through data of patent publication US5629430A, “Trifluoromethylpyrroloindolecarboxylic acid ester and process for production thereof” (Kyorin Pharmaceutical Co., Ltd., priority 1992, dated 1997).

Assay [1] has as its system P388 mouse leukemia cells. Put plainly: Activity against tumor cell growth (P388, MTT, 72 h). Particulars: read-out: IC50 (50% growth inhibition concentration). It is filed as cell-based. The procedure, abridged:
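P388 cells at 1.5×10^5 cells/ml in RPMI1640 with 10% FBS, 2 mM glutamine and 5 μM 2-hydroxyethyldisulfide; DMSO-dissolved compound diluted in medium, 72 h at 37 °C, 5% CO2. MTT added for 3 h, formazan dissolved in HCl-isopropanol, A540 read. IC50 from absorbance ratio versus untreated cells.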

Another assay has as its system P388 cells. Description: Antineoplastic activity, mice having P388 cells transplanted in abdominal cavity. Particulars: for T/C in words: cure (Survived for 60 days or longer): two mice, Cured: Survived for 60 days or longer. In kind it is in vivo, mouse (female, CDF1 strain). As for the experimental part: (§1) The test compound was dissolved in dimethylsulfoxide, and the solution was adequately diluted with 10% Emulfore EL620(produced by Rhone Poulenc Co.) to prepare the test compound solution. The antineoplastic activity was evaluated as below.
To the abdominal cavity of a female mouse (CDF1 strain, 8 to 9 week age), 1×10^6 P388 cells were transplanted. Next day, the test medicine solution was injected intraperitonealy in a single dose. Five to eight mice were employed for the solvent-dosed control group, and two mice were employed for each of the dosed groups. The antineoplastic effect was evaluated by the ratio (T/C, %) of the average survival days of the dosed group (T) to the average survival days of the solvent-dosed control group(C). The T/C ratio of 130% or more is evaluated to be effective.
"Cured": Survived for 60 days or longer

In another assay the test system is Sarcoma-180 cells. Description: Antineoplastic activity, mice having Sarcoma-180 cells transplanted subcutaneously. Particulars: Mus musculus, Sarcoma-180, iv, 144 h, read-out: T/C (average tumor weight, dosed vs. solvent-dosed control); for response vs control in vivo at 0.25 mg/kg: i.v. 0.25 mg/kg single dose, tumor weighed six days after dosage. In kind it is in vivo, mouse (female, CDR strain). On the procedure:
as §1
To the lateral region of a female mouse (CDR strain, 5 to 6 week age), 3.6×10^6 to 5×10^6 Sarcoma-180 cells were transplanted subcutaneously. Next day, the test medicine solution was injected into the tail vein in a single dose. Eight to twelve mice were employed for the solvent-dosed control group, and five mice were employed for the dosed group. Six days after the dosage, the tumor was cut out, and the weight thereof was measured. The antineoplastic effect was evaluated by the ratio (T/C) of the average tumor weight of the dosed group (T) to the average tumor weight of the solvent-dosed control group (C).

For the next assay, the system named is Colon-26 cells. Description: Antineoplastic activity, mice having Colon-26 cells transplanted subcutaneously. It is filed as in vivo, mouse (female, CDF1 strain). Particulars: Mus musculus, Colon 26, iv, 168 h, read-out: T/C (average tumor weight, dosed vs. solvent-dosed control); for response vs control in vivo at 0.25 mg/kg: i.v. 0.25 mg/kg single dose on sixth day, tumor weighed one week after dosage. On the procedure:
as §1
To the lateral region of a female mouse (CDF1 strain, 8 to 12 week age), 1×10^6 Colon-26 cells were transplanted subcutaneously. On the sixth day after the transplantation, the test medicine solution-was injected into the tail vein in a single dose. Seven to twelve mice were employed for the solvent-dosed control group, and five mice were employed for the dosed group. One week after the dosage, the tumor was cut out, and the weight thereof was measured. The antineoplastic effect was evaluated by the ratio (T/C) of the average tumor weight of the dosed group (T) to the average tumor weight of the solvent-dosed control group (C).

The mark [2] stands for this setting: P388 mouse leukemia cells, 72 h, 37° C., MTT.

Values after ≈ are worked out from the molar mass of the structure shown. Where two headings read alike, the source gives them in different places.

As to `COC(=O)c1c(C(F)(F)F)[nH]c2c1C13CC1CN(C(=O)c1cc4cc(NC(=O)c5cc6ccccc6[nH]5)ccc4[nH]1)C3=CC2=O` (centres unmarked) [Example 23, Methyl 2-[5-[(1H-indol-2-ylcarbonyl)amino]-1H-indol-2-ylcarbonyl]-6-trifluoromethyl-1,2,8,8a-tetrahydrocyclopropa[c]pyrrolo[3,2-e]indole-4 (5H)-one-7-carboxylate], in assay [1] (setting [2]), the IC50 is 0.86 ng/mL (≈ 1.4 nM). For the same molecule, the “T/C in words: cure (Survived for 60 days or longer)” value (“T/C in words: cure” for short) with P388 cells (i.p. 0.25 mg/kg single dose) is on record as “Both cured”. Besides, the response vs control in vivo at 0.25 mg/kg with Sarcoma-180 cells was found to be 16%; in the assay on Colon-26 cells, 12%.

As for `COC(=O)c1c(C(F)(F)F)[nH]c2c1C13CC1CN(C(=O)c1cc4cc(OC)c(OC)c(OC)c4[nH]1)C3=CC2=O` (centres unmarked) [Example 20, methyl 6-trifluoromethyl-2-(5,6,7-trimethoxy1H-indol-2-ylcarbonyl)-1,2,8,8a-tetrahydrocyclopropa[c]-pyrrolo[3,2e]indole-4 (5H)-one-7-carboxylate], in assay [1] (setting [2]), the IC50 stood at 0.24 ng/mL (≈ 0.44 nM). For the same molecule, the “T/C (average survival days, dosed vs. solvent-dosed control)” value in the assay with P388 cells (i.p. 0.125 mg/kg single dose, next day after transplantation, >=130% effective) is recorded as 194%. Besides, the response vs control in vivo at 0.25 mg/kg is 36% with Sarcoma-180 cells (*(n = 4)) and 15% with Colon-26 cells.

Consider `COC(=O)c1c(C(F)(F)F)[nH]c2c(OC(=O)N3CCN(C)CC3)cc3c(c12)C(CBr)CN3C(=O)c1cc2cc(NC(=O)c3cc4ccccc4o3)ccc2[nH]1` (centres unmarked) [Example 49], for which the IC50 in assay [1] (Mus musculus, P388, 72 h) worked out at 89 ng/mL (≈ 108 nM). For the same molecule, in the assay with P388 cells (i.p. 0.5 mg/kg single dose), the “T/C in words: cure” value is “Both cured”. The results for the response vs control in vivo at 0.5 mg/kg in the assay on Sarcoma-180 cells and in the assay with Colon-26 cells were 12% and 9%, respectively.

As to `COC(=O)c1c(C(F)(F)F)[nH]c2c1C13CC1CN(C(=O)c1cc4cc(NC(=O)c5cc6ccccc6o5)ccc4[nH]1)C3=CC2=O` (centres unmarked) [Example 24, Methyl 2-[5-[(benzofuran-2-ylcarbonyl)amino]-1H-indol-2-ylcarbonyl]-6-trifluoromethyl-1,2,8,8a-tetrahydrocyclopropa[c]pyrrolo[3,2-e]indole-4 (5H)-one-7-carboxylate], the IC50 in assay [1] (setting [2]) was found to be 0.53 ng/mL (≈ 0.862 nM). Besides, the “T/C in words: cure” value in the assay with P388 cells (i.p. 0.125 mg/kg single dose) is “Both cured”. The response vs control in vivo at 0.25 mg/kg in the assay on Sarcoma-180 cells turned out to be 17%; in the assay on Colon-26 cells it was 11%.

Take `COC(=O)c1c(C(F)(F)F)[nH]c2c(OC(=O)N3CCN(C)CC3)cc3c(c12)C(CCl)CN3C(=O)c1cc2cc(NC(=O)c3cc4ccccc4o3)ccc2[nH]1` (centres unmarked) [Example 48]: the IC50 in assay [1] (Mus musculus, P388, 72 h) came out at 80 ng/mL (≈ 103 nM). In addition, the “T/C in words: cure” value with P388 cells (i.p. 0.5 mg/kg single dose) was “Both cured”. Besides, the response vs control in vivo at 1 mg/kg stood at 8% with Sarcoma-180 cells and 6% with Colon-26 cells.
